As usually defined, the EC50 is the concentration at which the effect is half-maximal. Read a high EC50 as a need for much substance.

EC50 data for two compounds are collected here from ChEMBL document CHEMBL4256942, “Exo Olefin-Containing Nuclear Transport Modulators and Uses Thereof” (2016).

The target in the test is Exportin-1 (Homo sapiens, UniProt O14980). As to the kind of experiment: Inhibition of CRM1 in human HeLa cells expressing GFP which is N-terminally fused to nuclear localization and C-terminally fused to nuclear export signal of PKI assesed as reduction in GFP subcellular localization incubated for 3 hrs by nuclear export assay. It is filed as cell-based.
Chain of Exportin-1 (O14980 whole entry, the tested form may be a part): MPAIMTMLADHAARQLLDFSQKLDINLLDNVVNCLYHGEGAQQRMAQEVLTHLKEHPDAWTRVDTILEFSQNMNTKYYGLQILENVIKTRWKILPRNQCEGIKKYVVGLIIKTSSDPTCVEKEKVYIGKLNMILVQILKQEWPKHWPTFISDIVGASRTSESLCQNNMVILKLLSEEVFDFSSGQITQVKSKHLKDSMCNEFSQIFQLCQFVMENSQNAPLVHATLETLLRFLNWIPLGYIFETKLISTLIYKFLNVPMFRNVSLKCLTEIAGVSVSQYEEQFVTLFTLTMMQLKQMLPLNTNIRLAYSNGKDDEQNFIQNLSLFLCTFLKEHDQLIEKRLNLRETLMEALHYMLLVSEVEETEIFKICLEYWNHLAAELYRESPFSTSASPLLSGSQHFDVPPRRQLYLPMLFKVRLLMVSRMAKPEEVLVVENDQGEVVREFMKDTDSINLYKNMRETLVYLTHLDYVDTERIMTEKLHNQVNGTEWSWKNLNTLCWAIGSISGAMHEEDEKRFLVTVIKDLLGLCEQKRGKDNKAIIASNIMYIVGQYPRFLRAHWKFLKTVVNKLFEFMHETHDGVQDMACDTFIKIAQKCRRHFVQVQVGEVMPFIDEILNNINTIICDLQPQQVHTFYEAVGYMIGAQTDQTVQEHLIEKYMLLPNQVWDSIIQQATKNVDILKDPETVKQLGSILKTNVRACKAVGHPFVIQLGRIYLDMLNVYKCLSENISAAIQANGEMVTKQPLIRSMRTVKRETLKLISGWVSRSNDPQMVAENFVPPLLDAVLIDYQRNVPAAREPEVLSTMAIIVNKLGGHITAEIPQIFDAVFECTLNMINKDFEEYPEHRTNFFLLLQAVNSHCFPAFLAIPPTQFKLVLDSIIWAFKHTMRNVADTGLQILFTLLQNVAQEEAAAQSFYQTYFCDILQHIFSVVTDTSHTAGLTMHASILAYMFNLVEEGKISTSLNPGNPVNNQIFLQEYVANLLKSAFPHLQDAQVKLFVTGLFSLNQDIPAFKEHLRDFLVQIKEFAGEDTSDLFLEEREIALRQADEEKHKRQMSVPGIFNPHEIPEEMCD

`C=C(Cn1nnc(-c2cccc(C(F)(F)F)c2)n1)C(=O)OCC`: the EC50 is 30 µM.

Compound `C=C(Cn1nnc(-c2cccc(Cl)c2)n1)C(=O)OCC` returned an EC50 of 30 µM.
